{"source": "patent US20200188477A1", "about": "“A MEDICAMENT FOR THE TREATMENT OF DISEASES BY BIOFILM FORMING MICROORGANISMS” (priority 2017, published 2020)", "system": "M. smegmatis over-expressing M. tuberculosis PpiB protein", "assay": "Biofilm formation assay (crystal violet)", "assay_type": "cell-based, Mycobacterium smegmatis", "conditions": "Ms_PpiB (Tet+), 7 days, absorbance 550 nm", "data": [{"smiles": "C[C@H]1O[C@H](O[C@H]2[C@H](O)[C@@H](O)[C@@H](O[C@H]3[C@H](O)[C@@H](O)C(O)O[C@@H]3CO)O[C@@H]2CO)[C@H](O)[C@@H](O)[C@@H]1N[C@H]1C=C(CO)[C@@H](O)[C@H](O)[C@H]1O", "note": "(stereo partly shown) [acarbose]", "values": [{"measurement": "concentration at which treatment significantly reduced biofilm formation", "result": "above 500 μg/ml"}]}]}
